Results as given in ChEMBL document CHEMBL5029167, “Development of Asialoglycoprotein-Mediated Hepatocyte-Targeting Antitumor Prodrugs Triggered by Glutathione” (J Med Chem, 2021).
The source made the active and inactive calls. No cut-off for these calls is given here.

Experiments:
[1] = Drug uptake in human A549 cells at 10 uM after 15 mins by confocal scanning microscopic analysis; type: ADME, cell-based; settings: a549, 0.25 h
[2] = Prodrug release at pH 7.4 assessed as stability after 48 hrs in absence of GSH by LC-MS analysis; type: ADME; settings: pH 7.4, 48 h
[3] = Toxicity in Kunming mouse assessed as change in body weight at 50 mg/kg; type: organism-based; settings: in vivo
[4] = Drug distribution in Kunming mouse liver at 10 mg/kg, iv measured after 3 hrs by confocal scanning microscopic analysis; type: ADME, organism-based; settings: in vivo
[5] = Drug uptake in human SGC-7901 cells at 10 uM after 15 mins by confocal scanning microscopic analysis; type: ADME, cell-based; settings: sgc-7901, 0.25 h
H22 [6] = assay: Antitumor activity against mouse H22 cells implanted in Kunming mouse assessed as tumor growth inhibition at 10 mg/kg measured on day 7 by H and E staining based histopathological analysis; type: functional, organism-based; settings: time 7.0 day
[7] = Toxicity in Kunming mouse implanted with mouse H22 cells assessed as change in organ weight at 10 mg/kg after 7 days; type: organism-based; settings: in vivo, 168 h, time 7 day
HepG2 [8] = assay: Cytotoxicity against human HepG2 cells at 10 to 80 uM after 24 hrs; type: cell-based; settings: hepg2, 24 h, dose 10-80 µM
[9] = Prodrug release at pH 6.5 assessed as stability after 120 mins in presence of GSH by LC-MS analysis; type: ADME; settings: pH 6.5, 2 h
[10] = Drug uptake in human HeLa cells at 10 uM after 15 mins by confocal scanning microscopic analysis; type: ADME, cell-based; settings: 0.25 h
[11] = Drug uptake in human HepG2 cells at 10 uM after 15 mins by confocal scanning microscopic analysis; type: ADME, cell-based; settings: hepg2, 0.25 h
[12] = Prodrug release at pH 6.5 assessed as stability after 48 hrs in absence of GSH by LC-MS analysis; type: ADME; settings: pH 6.5, 48 h
H22 [13] = assay: Antitumor activity against mouse H22 cells implanted in Kunming mouse assessed as tumor growth inhibition at 10 mg/kg measured on day 7; type: functional; parameters: scale not given: the % may be the effect or the level left; settings: time 7 day
[14] = Toxicity in Kunming mouse assessed as change in organ weight at 50 mg/kg; type: organism-based; settings: in vivo
[15] = Drug uptake in human HepG2 cells pretreated with galactose for 30 mins followed by compound addition and measured after 15 mins by confocal scanning microscopic analysis; type: ADME, cell-based; settings: hepg2, 0.75 h, time 45 min
[16] = Prodrug release assessed as stability after 24 hrs in presence of NADH by LC-MS analysis; type: ADME
[17] = Toxicity in Kunming mouse implanted with mouse H22 cells assessed as change in body weight at 10 mg/kg after 7 days; type: organism-based; settings: in vivo, 168 h, time 7 day
[18] = Drug distribution in Kunming mouse liver at 8.4 mg/kg, iv measured after 3 hrs by confocal scanning microscopic analysis; type: ADME, organism-based; settings: in vivo
HepG2 [19] = assay: Induction of apoptosis in human HepG2 cells assessed as necrotic cells at 6 uM measured after 24 hrs by annexinV-FITC/propidium iodide double staining based flow cytometric analysis (reference value: 0.0 %); type: functional
HepG2 [20] = assay: Cell cycle arrest in human HepG2 cells assessed as accumulation at S phase at 8 uM measured after 24 hrs by propidium iodide staining based flow cytometric analysis (reference value: 37.10%); type: functional
HepG2 [21] = assay: Induction of apoptosis in human HepG2 cells assessed as late apoptotic cells at 12 uM measured after 24 hrs by annexinV-FITC/propidium iodide double staining based flow cytometric analysis (reference value: 0.1 %); type: functional
HepG2 [22] = assay: Cell cycle arrest in human HepG2 cells assessed as accumulation at G2/M phase at 2 uM measured after 24 hrs by propidium iodide staining based flow cytometric analysis (reference value: 7.63%); type: functional
HepG2 [23] = assay: Induction of morphological changes in human HepG2 cells assessed as chromatin condensation incubated for 24 hrs by Hoechst 33342 staining based analysis; type: functional, cell-based
HepG2 [24] = assay: Inhibition of cell migration in human HepG2 cells after 24 hrs by crystal violet staining based inverted microscopic analysis; type: functional
HepG2 [25] = assay: Cell cycle arrest in human HepG2 cells assessed as accumulation at G2/M phase at 8 uM measured after 24 hrs by propidium iodide staining based flow cytometric analysis (reference value: 7.63%); type: functional
[26] = Drug distribution in Kunming mouse lung at 3.5 mg/kg, iv measured after 3 hrs by confocal scanning microscopic analysis; type: ADME, organism-based; settings: in vivo
HepG2 [27] = assay: Induction of apoptosis in human HepG2 cells assessed as late apoptotic cells at 9 uM measured after 24 hrs by annexinV-FITC/propidium iodide double staining based flow cytometric analysis (reference value: 0.1 %); type: functional
[28] = Drug distribution in Kunming mouse liver at 3.5 mg/kg, iv measured after 3 hrs by confocal scanning microscopic analysis; type: ADME, organism-based; settings: in vivo
HepG2 [29] = assay: Induction of apoptosis in human HepG2 cells assessed as early apoptotic cells at 12 uM measured after 24 hrs by annexinV-FITC/propidium iodide double staining based flow cytometric analysis (reference value: 6.3 %); type: functional
HepG2 [30] = assay: Cytotoxicity against human HepG2 cells at 2 to 10 uM after 48 hrs by MTT assay; type: functional, cell-based; settings: HepG2, 48 h
HepG2 [31] = assay: Induction of apoptosis in human HepG2 cells assessed as viable cells at 6 uM measured after 24 hrs by annexinV-FITC/propidium iodide double staining based flow cytometric analysis (reference value: 93.6 %); type: functional; settings: read-out: Activity
HepG2 [32] = assay: Cell cycle arrest in human HepG2 cells assessed as accumulation at G0/G1 phase at 2 uM measured after 24 hrs by propidium iodide staining based flow cytometric analysis (reference value: 55.27%); type: functional
HepG2 [33] = assay: Induction of morphological changes in human HepG2 cells assessed as chromatin fragmentation incubated for 24 hrs by Hoechst 33342 staining based analysis; type: functional, cell-based
HepG2 [34] = assay: Cell cycle arrest in human HepG2 cells assessed as accumulation at G2/M phase at 4 uM measured after 24 hrs by propidium iodide staining based flow cytometric analysis (reference value: 7.63%); type: functional
HepG2 [35] = assay: Cell cycle arrest in human HepG2 cells assessed as accumulation at G0/G1 phase at 4 uM measured after 24 hrs by propidium iodide staining based flow cytometric analysis (reference value: 55.27%); type: functional
HepG2 [36] = assay: Induction of apoptosis in human HepG2 cells assessed as upregulation of caspase 3 protein expression at 2 to 8 uM after 24 hrs; type: functional, cell-based; settings: dose 2-8 µM
HepG2 [37] = assay: Inhibition of colony formation in human HepG2 cells after 7 days by crystal violet staining based inverted microscopic analysis; type: functional, cell-based; settings: time 7.0 day
HepG2 [38] = assay: Cell cycle arrest in human HepG2 cells assessed as accumulation at S phase at 4 uM measured after 24 hrs by propidium iodide staining based flow cytometric analysis (reference value: 37.10%); type: functional
HepG2 [39] = assay: Cell cycle arrest in human HepG2 cells assessed as accumulation at S phase at 2 uM measured after 24 hrs by propidium iodide staining based flow cytometric analysis (reference value: 37.10%); type: functional
HepG2 [40] = assay: Induction of apoptosis in human HepG2 cells assessed as viable cells at 12 uM measured after 24 hrs by annexinV-FITC/propidium iodide double staining based flow cytometric analysis (reference value: 93.6 %); type: functional; settings: read-out: Activity
HepG2 [41] = assay: Induction of apoptosis in human HepG2 cells assessed as early apoptotic cells at 6 uM measured after 24 hrs by annexinV-FITC/propidium iodide double staining based flow cytometric analysis (reference value: 6.3 %); type: functional
HepG2 [42] = assay: Induction of apoptosis in human HepG2 cells assessed as necrotic cells at 12 uM measured after 24 hrs by annexinV-FITC/propidium iodide double staining based flow cytometric analysis (reference value: 0.0 %); type: functional
[43] = Drug distribution in Kunming mouse kidney at 3.5 mg/kg, iv measured after 3 hrs by confocal scanning microscopic analysis; type: ADME, organism-based; settings: in vivo
[44] = Toxicity in Kunming mouse implanted with mouse H22 cells assessed as change in organ weight at 3.5 mg/kg after 7 days; type: organism-based; settings: in vivo, 168 h, time 7 day
[45] = Drug distribution in Kunming mouse spleen at 3.5 mg/kg, iv measured after 3 hrs by confocal scanning microscopic analysis; type: ADME, organism-based; settings: in vivo
H22 [46] = assay: Antitumor activity against mouse H22 cells implanted in Kunming mouse assessed as tumor growth inhibition at 3.5 mg/kg measured on day 7; type: functional; parameters: scale not given: the % may be the effect or the level left; settings: time 7 day
HepG2 [47] = assay: Induction of apoptosis in human HepG2 cells assessed as viable cells at 9 uM measured after 24 hrs by annexinV-FITC/propidium iodide double staining based flow cytometric analysis (reference value: 93.6 %); type: functional; settings: read-out: Activity
HepG2 [48] = assay: Induction of apoptosis in human HepG2 cells assessed as early apoptotic cells at 9 uM measured after 24 hrs by annexinV-FITC/propidium iodide double staining based flow cytometric analysis (reference value: 6.3 %); type: functional
[49] = Drug distribution in Kunming mouse heart at 3.5 mg/kg, iv measured after 3 hrs by confocal scanning microscopic analysis; type: ADME, organism-based; settings: in vivo
HepG2 [50] = assay: Induction of apoptosis in human HepG2 cells assessed as necrotic cells at 9 uM measured after 24 hrs by annexinV-FITC/propidium iodide double staining based flow cytometric analysis (reference value: 0.0 %); type: functional
[51] = Toxicity in Kunming mouse implanted with mouse H22 cells assessed as change in body weight at 3.5 mg/kg after 7 days; type: organism-based; settings: in vivo, 168 h, time 7 day
HepG2 [52] = assay: Induction of apoptosis in human HepG2 cells assessed as late apoptotic cells at 6 uM measured after 24 hrs by annexinV-FITC/propidium iodide double staining based flow cytometric analysis (reference value: 0.1 %); type: functional
HepG2 [53] = assay: Cell cycle arrest in human HepG2 cells assessed as accumulation at G0/G1 phase at 8 uM measured after 24 hrs by propidium iodide staining based flow cytometric analysis (reference value: 55.27%); type: functional

C=C[C@]1(C)CC[C@@H](C(=C)Cn2cc(CN3C(=O)c4cccc5c(N6CCN(C(=O)OCCSSCCOCC(=O)NC(COCc7cn([C@@H]8O[C@H](CO)[C@H](O)[C@H](O)[C@H]8O)nn7)(COCc7cn([C@@H]8O[C@H](CO)[C@H](O)[C@H](O)[C@H]8O)nn7)COCc7cn([C@@H]8O[C@H](CO)[C@H](O)[C@H](O)[C@H]8O)nn7)CC6)ccc(c45)C3=O)nn2)C[C@H]1C(=C)C
Drug uptake [1]: Active
Stability [2]: Stable
Activity [3]: Non-Toxic
Drug uptake [4]: Active
Drug uptake [5]: Active
Activity (H22 [6]): Active
Activity [7]: Non-Toxic
Activity (HepG2 [8]): Non-Toxic
Stability [9]: Unstable
Drug uptake [10]: Active
Drug uptake [11]: Active
Stability [12]: Stable
Activity (H22 [13]): 51.22%
Activity [14]: Non-Toxic
Drug uptake [15]: Not Active
Stability [16]: 98.9%
Activity [17]: Non-Toxic

C=C[C@]1(C)CC[C@@H](C(=C)Cn2cc(CN3C(=O)c4cccc5c(N6CCN(C(=O)OCCSSCCOCC(=O)NC(COCc7cn([C@@H]8O[C@H](CO)[C@H](O)[C@H](O)[C@H]8O)nn7)COCc7cn([C@@H]8O[C@H](CO)[C@H](O)[C@H](O)[C@H]8O)nn7)CC6)ccc(c45)C3=O)nn2)C[C@H]1C(=C)C
Drug uptake [1]: Active
Drug uptake [18]: Active
Drug uptake [5]: Active
Activity (HepG2 [8]): Non-Toxic
Drug uptake [10]: Active
Drug uptake [11]: Active
Drug uptake [15]: Not Active

C=C[C@]1(C)CC[C@@H](C(=C)Cn2cc(CN3C(=O)c4cccc5c(N6CCNCC6)ccc(c45)C3=O)nn2)C[C@H]1C(=C)C
Activity (HepG2 [19]): 0%
Activity (HepG2 [20]): 21.81%
Activity (HepG2 [21]): 0.3%
Activity (HepG2 [22]): 6.61%
Drug uptake [1]: Not Active
Activity (HepG2 [23]): Active
inhibition (HepG2 [24]): Dose-Dependent Effect
Activity (HepG2 [25]): 67.4%
Drug uptake [26]: Not Active
Activity (HepG2 [27]): 0.9%
Drug uptake [28]: Not Active
Drug uptake [5]: Not Active
Activity (HepG2 [29]): 94.9%
IC50 (HepG2 [30]): 6.11 µM
viability at 6 µM (HepG2 [31]): 51.5%
Activity (HepG2 [32]): 63.46%
Activity (HepG2 [33]): Active
Activity (HepG2 [34]): 5.29%
Activity (HepG2 [35]): 64.24%
Activity (HepG2 [36]): Active
inhibition (HepG2 [37]): Dose-Dependent Effect
Drug uptake [10]: Not Active
Drug uptake [11]: Not Active
Activity (HepG2 [38]): 30.47%
Activity (HepG2 [39]): 29.93%
viability at 12 µM (HepG2 [40]): 4.7%
Activity (HepG2 [41]): 46.5%
Activity (HepG2 [42]): 0%
Drug uptake [43]: Not Active
Activity [44]: Non-Toxic
Drug uptake [45]: Not Active
Activity (H22 [46]): 33.65%
viability at 9 µM (HepG2 [47]): 9.7%
Activity (HepG2 [48]): 89.4%
Drug uptake [49]: Not Active
Activity (HepG2 [50]): 0%
Activity [51]: Non-Toxic
Activity (HepG2 [52]): 1.9%
Activity (HepG2 [53]): 71.44%
